Data: patent US20080139664A1, “ANTI-GLYCATION AGENTS FOR PREVENTING AGE-, DIABETES-, AND SMOKING-RELATED COMPLICATIONS” (NATIONAL RESEARCH COUNCIL OF CANADA, priority 2001, published 2008)
Where two headings read alike, the source gives them in different places.

Experiments:
[1] = system: bovine serum albumin (BSA); assay: Fluorescamine assay of free primary amino groups of BSA incubated with D-ribose; format: biochemical; settings: free primary amino group on BSA after 5 days at 37° C.; agent at 16.8 times IC50; 64% without agent
[2] = system: bovine serum albumin (BSA); assay: SDS-PAGE assessment of BSA-BSA protein cross-links; format: biochemical; settings: mixtures further incubated for 4 weeks; further: key: ++: strongly suppressed; +: suppressed; −: no suppression; *: moderate acceleration of the cross-linking
Method: Additionally, protein cross-links were semi-quantitatively assessed by SDS PAGE gel chromatography.
Protein-protein cross-links were characterized by SDS-PAGE. The incubation mixtures used for determination of the amino groups were further incubated for 4 weeks. An aliquot of the solution was applied to Pharmacia SDS FAST gel and the proteins were stained with Coomassie blue.

[3] = system: bovine serum albumin (BSA)
lysozyme = assay: ESI-MS of lysozyme glycoforms after incubation with D-ribose;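 further: lysozyme incubated with D-ribose, with or without anti-glycation agents, then separated by reversed-phase HPLC and analysed by electrospray mass spectrometry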
[4] = system: bovine serum albumin (BSA); assay: Maillard fluorescence-based assay of AGEs formation, IC50 determination (BSA + D-ribose); settings: inhibition of Maillard fluorescence development; 0.075 mM BSA, 50 mM D-ribose, 37° C., 5 days
[5] = lysozyme + 2D-ribose − 2H2O (14,569 Da), 37° C., 5 days
[6] = lysozyme + 2D-ribose − 3H2O (14,551 Da), 37° C., 5 days
[7] = lysozyme + 2D-ribose − 5H2O (14,533 Da), 37° C., 5 days
[8] = lysozyme + 2D-ribose − 6H2O (14,515 Da), 37° C., 5 days
[9] = lysozyme + D-ribose − 2H2O (14,419 Da), 37° C., 5 days
[10] = lysozyme + D-ribose − 3H2O (14,401 Da), 37° C., 5 days
[11] = lysozyme + D-ribose − H2O (14,437 Da), 37° C., 5 days
[12] = lysozyme + D-ribose − H2O with one carboxymethylated Lys residue (14,496 Da), 37° C., 5 days
[13] = lysozyme with one carboxymethylated Lys residue (14,364 Da), 37° C., 5 days
[14] = unmodified lysozyme (14,305 Da), 37° C., 5 days
[15] = FIG. 2, in words, 37° C., 5 days

| SMILES | Unreacted amino group [1] [%] | Suppression of BSA-BSA cross-links [2] | IC50 [3] [µM] | Peak area as % of total area of all glycoforms, 14,569 (lysozyme; [5]) [%] | Peak area as % of total area of all glycoforms, 14,551 (lysozyme; [6]) [%] | Peak area as % of total area of all glycoforms, 14,533 (lysozyme; [7]) [%] | Peak area as % of total area of all glycoforms, 14,515 (lysozyme; [8]) [%] | Peak area as % of total area of all glycoforms, 14,419 (lysozyme; [9]) [%] | Peak area as % of total area of all glycoforms, 14,401 (lysozyme; [10]) [%] | Peak area as % of total area of all glycoforms, 14,437 (lysozyme; [11]) [%] | Peak area as % of total area of all glycoforms, 14,496 (lysozyme; [12]) [%] | Peak area as % of total area of all glycoforms, 14,364 (lysozyme; [13]) [%] | Peak area as % of total area of all glycoforms, 14,305 (lysozyme; [14]) [%] | further results |
| --- | --- | --- | --- | --- | --- | --- | --- | --- | --- | --- | --- | --- | --- | --- |
| Oc1cccc2cccnc12 [8-Hydroxyquinoline] | 55 | + | 95 | – | – | – | – | – | – | – | – | – | – | Peak area as % of total area of all glycoforms, 14,305 (lysozyme): 67.8%; Peak area as % of total area of all glycoforms, 14,364 (lysozyme): 4.2%; Peak area as % of total area of all glycoforms, 14,401 (lysozyme): 5.8%; Peak area as % of total area of all glycoforms, 14,419 (lysozyme): 3.6%; Peak area as % of total area of all glycoforms, 14,437 (lysozyme): 9.0%; Peak area as % of total area of all glycoforms, 14,496 (lysozyme): 1.7%; Peak area as % of total area of all glycoforms, 14,515 (lysozyme): 1.7%; Peak area as % of total area of all glycoforms, 14,533 (lysozyme): 1.6%; Peak area as % of total area of all glycoforms, 14,551 (lysozyme): 1.5%; Peak area as % of total area of all glycoforms, 14,569 (lysozyme): 2.3% |
| Cc1cc(-c2ccc(/N=N/c3c(S(=O)(=O)O)cc4cc(S(=O)(=O)O)cc(N)c4c3O)c(C)c2)ccc1/N=N/c1c(S(=O)(=O)O)cc2cc(S(=O)(=O)O)cc(N)c2c1O [Trypan blue] | 60 | + | – | 4.6 | 3.4 | 1.9 | 1.6 | 5.6 | 3.0 | 20.2 | 2.1 | 3.7 | 49.8 | IC50 [4]: 240 µM |
| CN(C)[C@@H]1C(O)=C(C(N)=O)C(=O)[C@@]2(O)C(O)=C3C(=O)c4c(O)ccc(Cl)c4[C@@H](O)[C@H]3C[C@@H]12 [Demeclocycline] | 69 | + | 19 | 1.4 | 0.0 | 0.0 | 0.0 | 3.0 | 1.9 | 13.7 | 0.0 | 4.2 | 75.2 | – |
| O=S(=O)(O)c1ccc(O)c2ncccc12 [8-Hydroxyquinoline-5-sulfonic acid] | 76 | ++ | 560 | 5.2 | 0.9 | 1.0 | 0.5 | 3.2 | 2.0 | 27.9 | 0.0 | 0.7 | 58.0 | – |
| NC[C@H](O)c1ccc(O)c(O)c1 [D-Norepinephrine] | 67 | + | 66 | 1.0 | 0.0 | 0.0 | 0.0 | 1.9 | 1.9 | 12.1 | 0.7 | 5.0 | 77.3 | – |
| O=C1c2c(O)ccc(O)c2C(=O)c2c(NCCNCCO)ccc(NCCNCCO)c21 [Mitoxantrone] | 50 | + | 630 | 5.9 | 3.6 | 1.3 | 0.8 | 6.5 | 1.9 | 25.2 | 1.0 | 1.6 | 49.8 | – |
| CN1CCCN=C1/C=C/c1cccc(O)c1 [Oxantel] | 55 | + | 600 | 3.1 | 2.0 | 1.7 | 1.1 | 5.6 | 3.7 | 17.4 | 1.7 | 5.4 | 57.7 | – |
| CNC[C@H](O)c1ccc(O)c(O)c1 [L-Epinephrine] | 69 | ++ | 18 | 1.7 | 0.0 | 0.0 | 0.0 | 2.0 | 0.8 | 15.3 | 1.0 | 4.8 | 74.5 | amount of (AP-H2O) glycoform of lysozyme (lysozyme; [15]): reduced; amount of AP glycoform of lysozyme (lysozyme; [15]): reduced |
